According to EP1432717B1, “SUBSTITUTED DISILOXANES, METHOD FOR THE PRODUCTION THEREOF AND THE USE THEREOF FOR REVERSAL OF MULTIDRUG RESISTANCE (MDR)” (Molnar, Jozsef, priority 2000, dated 2002):
Structures can show the parent of a compound that is named as a salt.

How the values were obtained:
gp-170 Protein = assay: Rhodamine-123 efflux pump inhibition assay (cell sorter fluorescence FL1); format: cell-based, Maus; settings: for 100%-ige Hemmungsbereich (concentration range giving 100% inhibition of the efflux pump): considerable variation between repeats
Procedure: 0,5 ml 2x10^6 /ml L-5178Y parental und Mdr Mauslymphomazellen wurden 10 Min. lang mit 40,0 200,0 und 1000 ng ALIS-409 inkubiert. Danach wurden die Zellen mit Rhodamin-123 Indikatorfarbstoff (Endkonzentration: 5,2 µMol) bei 37C° für 20 Min. inkubiert. Die Zellen wurden mit PBS gewaschen und die Fluoreszenz-Intensität (FL1) mittels Cellsorter gemessen. Die Intensität der unbehandelten parentalen Zellen entsprach der 100%igen Hemmung.
(§1) Die Intensität der unbehandelten Mdr-Zellen entsprach der 100%-igen Effluxpumpemktivität. Bei mehrfach wiederholten unabhängigen Versuchen in Deutschland und in Ungam wurde eine Inhibition der Effluxpumpen bereits bei 40,0 ng/ml Konzentration zwischen 20-45% gefunden und bei etwa 200,0 ng/ml Konzentration eine 80%-ige Hemmung erreicht. Der 100%-ige Hemmungsbereich liegt etwa zwischen 300-800 ng/ml. Es gab zwar eine erhebliche Schwankung bei der Wiederholung, jedoch fiel immer die 100%-ige Hemmung in den Nanogramm Bereich. Bei der Überprüfung von Mdr-Gen-Expression mittels PCR wurde kein Einfluss dieser ALIS-Verbindung auf die Reduktion oder Verstärkung der Mdr RNA Synthese gefunden. Das ist deshalb günstig, weil die Mdr auch eine wichtige physiologische Rolle bei den Entgiflungsmechanismen der gesunden Zellen (z.B. Nierenzellen) spielt und nach der Beendigung der Therapie das aktive gp-170 Protein wieder produziert werden kann. Außerdem wirkt ALIS-409 auch allein cancerostatisch - und zwar gegenüber gp-170 positiv (EPG85-257RDB) Magencarcinomazellen in vitro. Es wurde die folgende Proliferationshemmung nachgewiesen: 41% bei 100 ng/ml und 74% bei 300 ng/ml.
Die methodische Überprüfung war mit dem Beispiel 3 identisch. Auch die Inhibition der Effluxpumpenaktivitäten waren ähnlich groß. Im Konzentrationsbereich 200-500 ng/ml konnte eine 100%-ige Inhibition erreicht werden. […] Die schnelle Hemmung nach einer 10-minütigen Inkubatioszeit weist auf eine direkte Interaktion zwischen der Substanz und dem gp-170 Protein hin.

[1] = In vivo toxicity test in mice; set-up: species or system Mäuse; settings: for survival: mouse, in vivo, 10 mg/kg, 10,0 mg/kg, read-out: Überleben der Mäuse
Text: Der Erfindung liegt die Aufgabe zugrunde, Verbindungen zur Verfügung zu stellen, mit denen sich die Wirksamkeit von Zytostatika verbessern lässt. Die Aufgabe wurde erfindungsgemäß durch die Bereitstellung von neuen organischen Siliciumverbindungen der Formel I gelöst. Die erfindungsgemäßen neuen substituierten Disiloxane der allgemeinen Formel I [drawing 2] enthalten folgenden Substituenten: • R^1 = Methyl, Ethyl, Phenyl oder tertiär Butyl • R^2 = X (Halogen: Cl, Br, F), CX3, (para, ortho, meta), • n = 0-1, m = 1-3 • Q = Alkyl, Cycloalkyl, sekundäres Amin, Morpholin, substituiertes Piperazin, worin [drawing 3] • R^3 = Methyl, Ethyl, Butyl, Phenyl, Benzyl, -(CH2)pSi(R^4)3 mit p = 1 - 3 und R^4 = Methyl, Ethyl bedeuten. Die erfindungsgemäß bereitgestellten Verbindungen werden durch Umsetzung von substituierten Alkyl-dichlor-silanen mit Aryl-Grignard-Verbindungen gewonnen und daraus durch acide Hydrolyse Disiloxane, die ihrerseits im Fall von Halogen-Alkylen mit Aminen umgesetzt werden. In speziellen Fällen wird Magnesium mit 4-Fluor-brombenzol umgesetzt und daraus durch Reaktion mit 3-Chlorpropyl-methyl-dichlorsilan das Zwischenprodukt 1,3-bis(4-fluorophenyl)-1,3-dimethyl-1,3-bis(3-chloropropyl)-disiloxan gewonnen. Dieses Produkt wird seinerseits mit Morpholin zu ALIS 409 oder mit 4-Butyl-piperazin zu ALIS 421 (Beispiele 2 und 3) umgesetzt. Überraschendweise hat sich herausgestellt, dass es sich bei den erfindungsgemäßen neuen substituierten Disiloxane um biologisch wirksame, nicht toxische Verbindungen handelt, die zur Umkehrung der Multidrogeresistenz (Mdr) der malignen Tumorzellen und pathogenen Erreger fähig sind und die Effluxpumpenaktivität der malignen Mdr-Tumorzellen und die Pgp-Resistenz von parasitären Zellen, Pilzen sowie von Bakterien bereits im ng/ml-Konzentrationsbereich stark inhibieren. Die neuen substituierten Disiloxane finden Verwendung als Zytostatika und in der Chemotherapie - auch in Kombination mit anderen Mitteln. Es ist überraschend, dass sie eine starke Chemosensitation der resistenten Mdr-Tumorzellen verursachen und ihre Effluxpumpenaktivität unterdrücken. Dadurch lässt sich die intrazelluläre Chemotherapeutikum-Konzentration so hoch ansetzen, dass kein Unterschied mehr im Vergleich mit parentalen Zellen nachgewiesen werden kann. Die als ALIS-Verbindungen bezeichneten erfindungsgemäßen Substanzen sind dadurch gekennzeichnet, dass sie biologisch wirksam sind und die Effluxpumpenaktivität der malignen Mdr-Tumorzellen, Pgp-Resistenz von parasitären Zellen, Pilzen und Bakterien bereits im ng/ml-Konzentrationsbereich stark inhibieren. Auch in höheren Konzentration wirken sie in vivo nicht toxisch. Nach dem Zell-Substanz-Kontakt sind sie sofort wirksam. Die ALIS-Verbindungen sind dadurch gekennzeichnet, dass sie hauptsächlich die Wirksamkeit der Chemotherapie erhöhen, aber auch allein zytostatisch wirken. Die Toxizität der neuen Verbindungen wurde im Maussytem getestet. Das Ergebnis war überraschend gut. Trotz zehnfacher Überdosierung konnte der ID-50 Wert nicht ermittelt werden, da die Mäuse die Behandlung 100%-ig überlebt haben und kein Gewichtsverlust auftrat. In manchen Fällen bekamen die Mäuse scheinbar sogar mehr Appetit. Alle Ergebnisse weisen darauf hin, dass die erfindungsgemäß bereitgestellten Verbindungen zum Einsatz in der Chemotherapie von Tumoren bzw. von Infektionskrankheiten geeignet sind. […]

[2] = Water solubility (stated in heading)
[3] = test system: gp-170 positiv (EPG85-257RDB) Magencarcinomazellen; assay: In vitro proliferation inhibition (compound alone); format: cell-based
Procedure: as §1

Mdr RNA Synthese = assay: PCR check of Mdr gene expression; format: cell-based
Procedure: as §1
Die methodische Überprüfung war mit dem Beispiel 3 identisch. Auch die Inhibition der Effluxpumpenaktivitäten waren ähnlich groß. Im Konzentrationsbereich 200-500 ng/ml konnte eine 100%-ige Inhibition erreicht werden. […]

[4] = L-5178Y Mdr Mauslymphomazellen, 10 min incubation

| Compound | Inhibition der Effluxpumpen (gp-170 Protein; 40,0 ng/ml, L-5178Y Mdr Mauslymphomazellen, 10 min incubation, repeated independent experiments) | 100%-ige Hemmungsbereich (concentration range giving 100% inhibition of the efflux pump) (gp-170 Protein; [4]) [ng/mL] | Hemmung (Effluxpumpen) (gp-170 Protein; about 200,0 ng/ml, L-5178Y Mdr Mauslymphomazellen, 10 min incubation) [%] | Gewichtsverlust ([1]; 10,0 mg/kg) | survival [1] [%] | Wasserlöslichkeit [2] | inhibition at 0.1 µg/mL ([3]; 100 ng/ml, EPG85-257RDB, read-out: Proliferationshemmung) [%] | inhibition at 0.3 µg/mL ([3]; 300 ng/ml, EPG85-257RDB, read-out: Proliferationshemmung) [%] | Einfluss auf die Mdr-Gen-Expression (Mdr RNA Synthese) (Mdr RNA Synthese) | Inhibition der Effluxpumpenaktivität (in words) (gp-170 Protein; Mdr tumour cells, qualitative statement) | Toxizität ([1]; 10,0 mg/kg) | cancerostatischer Effekt allein ([3]; comparison in words) |
| --- | --- | --- | --- | --- | --- | --- | --- | --- | --- | --- | --- | --- |
| C[Si](CCCN1CCOCC1)(O[Si](C)(CCCN1CCOCC1)c1ccc(F)cc1)c1ccc(F)cc1 (centres unmarked) [ALIS-409, 1,3-Dimethyl-1,3-bis(4-fluorophenyl)-1,3-bis(3-morpholino-propyl)-disiloxan-dihydrochlorid] | 20-45% | 300 to 800 | 80 | ohne Gewichtsverlust | 100 | sehr gut wasserlöslich | 41 | 74 | kein Einfluss | – | – | – |
| CCCCN1CCN(CCC[Si](C)(O[Si](C)(CCCN2CCN(CCCC)CC2)c2ccc(F)cc2)c2ccc(F)cc2)CC1 (centres unmarked) [ALIS-421, 1,3-Dimethyl-1,3-bis(4-fluorophenyl)-1,3-bis{3-[1(4-butyl-piperazinyl)]-propyl}-disiloxan-tetrahydrochlorid] | – | 200 to 500 | – | ohne Gewichtsverlust | 100 | sehr gut wasserlöslich | – | – | keinen Einfluss | ähnlich groß | nicht toxisch | schwächer als bei ALIS 409 |
